Experimental data published in US5739274A, “Active component of parathyroid hypertensive factor” (CV Technologies, Inc., priority 1995, dated 1998).
Each block holds one compound with its values, some of them ahead of it.

What was measured:
L-type Ca2+ channel = biological target: T1, L-type Ca2+ channel (Rattus norvegicus, UniProt P22002); assay: Ca2+ channel study, whole cell patch clamp in single VSMC; format: cell-based; conditions: IBMX applied after FMOC-PHF
T1 construct: single VSMC isolated form rat tail artery by using the whole cell version of the patch clamp technique; endogenous in cells; host or cells: freshly isolated vascular smooth muscle cells of rat tail artery
T1 sequence (P22002 whole entry): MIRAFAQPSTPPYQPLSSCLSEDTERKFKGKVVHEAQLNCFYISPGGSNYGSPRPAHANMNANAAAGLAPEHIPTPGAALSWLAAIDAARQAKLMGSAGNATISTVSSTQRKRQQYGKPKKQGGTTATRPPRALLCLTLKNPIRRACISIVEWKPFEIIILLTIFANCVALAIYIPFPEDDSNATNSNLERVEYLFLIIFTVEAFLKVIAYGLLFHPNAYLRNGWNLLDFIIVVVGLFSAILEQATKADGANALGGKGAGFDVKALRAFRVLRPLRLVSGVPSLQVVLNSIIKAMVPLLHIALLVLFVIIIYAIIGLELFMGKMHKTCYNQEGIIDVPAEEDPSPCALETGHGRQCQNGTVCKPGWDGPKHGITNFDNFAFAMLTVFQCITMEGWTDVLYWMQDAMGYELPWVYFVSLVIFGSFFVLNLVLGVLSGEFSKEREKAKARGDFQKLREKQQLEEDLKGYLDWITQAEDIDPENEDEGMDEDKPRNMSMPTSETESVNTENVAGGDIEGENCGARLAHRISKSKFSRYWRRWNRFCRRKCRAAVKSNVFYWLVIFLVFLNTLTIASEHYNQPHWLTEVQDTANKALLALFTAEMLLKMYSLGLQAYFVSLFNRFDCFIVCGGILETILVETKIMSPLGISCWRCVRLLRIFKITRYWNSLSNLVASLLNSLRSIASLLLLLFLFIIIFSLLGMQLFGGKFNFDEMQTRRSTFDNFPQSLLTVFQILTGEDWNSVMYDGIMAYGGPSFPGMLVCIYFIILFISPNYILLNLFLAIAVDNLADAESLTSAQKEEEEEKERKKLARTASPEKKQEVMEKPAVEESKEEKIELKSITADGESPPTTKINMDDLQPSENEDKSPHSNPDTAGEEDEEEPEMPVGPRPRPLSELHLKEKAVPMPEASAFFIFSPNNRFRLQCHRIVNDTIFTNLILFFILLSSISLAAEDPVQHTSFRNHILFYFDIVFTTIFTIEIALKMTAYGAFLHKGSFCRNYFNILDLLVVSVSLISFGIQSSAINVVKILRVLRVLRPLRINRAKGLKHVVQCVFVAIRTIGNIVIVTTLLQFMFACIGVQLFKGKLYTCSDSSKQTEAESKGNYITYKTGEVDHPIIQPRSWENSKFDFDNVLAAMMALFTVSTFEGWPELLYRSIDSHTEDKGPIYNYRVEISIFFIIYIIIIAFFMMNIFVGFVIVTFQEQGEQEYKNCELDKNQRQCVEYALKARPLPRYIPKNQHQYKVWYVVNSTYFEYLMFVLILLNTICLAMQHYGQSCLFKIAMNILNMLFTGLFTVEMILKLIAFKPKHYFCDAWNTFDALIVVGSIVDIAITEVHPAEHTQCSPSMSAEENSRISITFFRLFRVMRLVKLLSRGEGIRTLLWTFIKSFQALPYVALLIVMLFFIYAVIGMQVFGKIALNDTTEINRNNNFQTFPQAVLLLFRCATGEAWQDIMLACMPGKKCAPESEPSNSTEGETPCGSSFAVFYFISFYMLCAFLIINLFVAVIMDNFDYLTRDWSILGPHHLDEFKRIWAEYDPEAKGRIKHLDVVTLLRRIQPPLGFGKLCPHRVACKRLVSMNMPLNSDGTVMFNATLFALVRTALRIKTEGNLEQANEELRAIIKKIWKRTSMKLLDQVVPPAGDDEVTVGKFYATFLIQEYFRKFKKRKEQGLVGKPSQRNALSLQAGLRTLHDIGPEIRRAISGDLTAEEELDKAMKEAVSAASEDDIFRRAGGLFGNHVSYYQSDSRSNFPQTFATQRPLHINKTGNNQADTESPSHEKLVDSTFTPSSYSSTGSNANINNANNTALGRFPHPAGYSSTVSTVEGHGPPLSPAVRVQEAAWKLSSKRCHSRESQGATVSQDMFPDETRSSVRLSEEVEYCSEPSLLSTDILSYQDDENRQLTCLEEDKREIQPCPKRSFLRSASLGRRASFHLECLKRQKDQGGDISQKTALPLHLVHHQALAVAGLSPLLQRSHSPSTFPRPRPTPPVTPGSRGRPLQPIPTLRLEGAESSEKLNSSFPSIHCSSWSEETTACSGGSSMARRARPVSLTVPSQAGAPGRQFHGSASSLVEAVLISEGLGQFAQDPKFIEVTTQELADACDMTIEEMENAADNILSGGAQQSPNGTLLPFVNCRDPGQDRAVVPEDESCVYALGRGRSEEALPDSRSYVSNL
T1 sequence (P54290 25-944 partner limits assumed): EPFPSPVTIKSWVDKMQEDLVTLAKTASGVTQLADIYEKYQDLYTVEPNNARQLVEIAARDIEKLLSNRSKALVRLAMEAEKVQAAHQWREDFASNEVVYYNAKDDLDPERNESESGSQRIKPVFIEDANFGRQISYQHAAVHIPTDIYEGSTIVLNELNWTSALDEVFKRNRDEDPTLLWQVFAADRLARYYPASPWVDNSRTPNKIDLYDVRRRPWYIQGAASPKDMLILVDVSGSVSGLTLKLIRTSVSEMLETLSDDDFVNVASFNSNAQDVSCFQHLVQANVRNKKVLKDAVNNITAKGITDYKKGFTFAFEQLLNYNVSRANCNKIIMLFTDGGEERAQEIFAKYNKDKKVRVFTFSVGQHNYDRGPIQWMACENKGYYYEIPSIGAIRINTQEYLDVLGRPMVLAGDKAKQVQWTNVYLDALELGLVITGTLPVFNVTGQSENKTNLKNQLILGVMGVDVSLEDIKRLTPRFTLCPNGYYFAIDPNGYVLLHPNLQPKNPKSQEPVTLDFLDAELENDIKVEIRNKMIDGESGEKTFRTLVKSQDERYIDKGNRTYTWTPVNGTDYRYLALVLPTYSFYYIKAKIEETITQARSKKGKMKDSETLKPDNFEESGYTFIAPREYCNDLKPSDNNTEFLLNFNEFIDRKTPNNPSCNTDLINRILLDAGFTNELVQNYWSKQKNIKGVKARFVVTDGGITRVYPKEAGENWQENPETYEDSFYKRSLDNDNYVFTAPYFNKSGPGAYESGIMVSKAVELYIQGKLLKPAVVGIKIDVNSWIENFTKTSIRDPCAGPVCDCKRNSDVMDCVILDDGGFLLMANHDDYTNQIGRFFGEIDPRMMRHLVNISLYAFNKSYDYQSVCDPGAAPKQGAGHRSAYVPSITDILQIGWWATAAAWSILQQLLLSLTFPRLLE
T1 sequence (P54290 945-1091 partner limits assumed): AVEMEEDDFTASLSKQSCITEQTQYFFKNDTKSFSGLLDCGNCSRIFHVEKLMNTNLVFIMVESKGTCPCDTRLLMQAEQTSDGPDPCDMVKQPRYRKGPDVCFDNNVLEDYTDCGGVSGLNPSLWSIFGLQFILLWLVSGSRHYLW
T1 sequence (P54287 whole entry partner): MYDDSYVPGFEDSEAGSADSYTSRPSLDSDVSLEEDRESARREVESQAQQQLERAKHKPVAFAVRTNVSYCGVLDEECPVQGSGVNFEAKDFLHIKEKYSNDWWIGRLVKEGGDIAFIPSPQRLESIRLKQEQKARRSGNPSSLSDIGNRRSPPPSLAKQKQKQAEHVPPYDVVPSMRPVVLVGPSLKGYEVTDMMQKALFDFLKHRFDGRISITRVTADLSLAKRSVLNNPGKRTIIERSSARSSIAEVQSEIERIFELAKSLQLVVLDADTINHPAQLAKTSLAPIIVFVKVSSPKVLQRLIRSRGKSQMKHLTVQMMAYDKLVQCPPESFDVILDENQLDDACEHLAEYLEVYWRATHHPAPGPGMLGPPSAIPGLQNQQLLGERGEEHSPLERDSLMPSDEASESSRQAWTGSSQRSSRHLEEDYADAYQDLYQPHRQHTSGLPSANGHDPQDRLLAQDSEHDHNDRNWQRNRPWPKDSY
Procedure: Ca^2+ channel activity was determined in single VSMC isolated form rat tail artery by using the whole cell version of the patch clamp technique (Hamill et al., 1981). Whole cell Ca^2+ current measurements were carried out by using an Axopatch-1B patch clamp amplifier (Axon Instruments). Patch micropipettes were pulled from borosilicate thin wall glass capillary tubes (OD 1.2 mm, ID 0.9 mm, FHS, Brunswick, Maine, USA) with a two stage micropipette puller (Narishige, PP83, Japan). The micropipettes were fire polished using a microforge (Leitz, Wetzlar, Germany). The tip diameter was approximately 1 μm with a resistance of 2-8 Mega Ohms. The cell attached to the bottom of a 3 cm Petri dish and was bathed in the medium containing 110 mM Tris, 5 mM CsCl, 20 mM HEPES, 30 mM glucose, 20 mM BaCl2, and 0.5 μM TTX. The polished pipette filled with a solution containing 75 mM Cs2 -aspartate, 10 mM EGTA, 2 mM ATP, 5 mM MgCl2, 5 mM K-pyruvate, 5 mM K-succinate, 25 mM glucose, 15 mM HEPES, 5 mM creatine phosphate-Na2, and 50 units/ml creatine kinase was placed against the cell membrane using a Narishige hydraulic micromanipulator. Gentle suction was applied via a tubing attached to the pipette holder. […] The currents were monitored using a digital oscilloscope (Nicolet Instrument Co., Madison, Wis., U.S.A.) and filtered at 3 KHz with a low pass filter (Axon Instruments, Foster City, Calif., U.S.A.). […]

Na+ K+ ATPase = Na+ K+ ATPase activity as ouabain-sensitive 86Rb uptake in rat tail artery; format: cell-based
Procedure: Na^+ K^+ ATPase activity was measured as the ouabain-sensitive ^86 Rb uptake in rat tail artery using the method of Deth et al. Briefly, male Sprague-Dawley rats weighing 300 to 400 g were sacrificed by pentobarbital overdose, and the tail arteries removed and cut into strips. The strips were rinsed in ice-cold Krebs solution (composition: NaCl, 117 mM; KCl, 5 mM; NaHCO3, 27 mM, NaH2 PO4, 1 mM, MgSO4, 1.2 mM, CaCl2, 1.25 mM, glucose 11.0 mM) and incubated in oxygenated (95% O2, 5% CO2) Krebs buffer at 37° C. for 2 hours. For the final 30 minutes, Krebs solution with no KCl and 122 mM NaCl was used to sodium-load the tissues. Following this incubation, the strips were transferred to tubes containing Krebs buffer and 1 μCi of ^86 Rb, giving a final […] concentration of 5 mM. Various incubation media consisting of the above-described incubation solution plus 30% SHR plasma (Rb concentration kept constant in all cases) plus 1 mM ouabain and incubation plus 30% plasma plus 1 mM ouabain. Strips were incubated in the respective solutions for 18 minutes, then rinsed in four changes of ice-cold Krebs solution, blotted, weighed and counted in a gamma counter. The effect of the various incubations on ^86 Rb uptake was analyzed by ANOVA using the Student-Neuman-Keuuls test for post-hoc comparisons. All results are expressed as mean±SD.

rat tail artery = assay: Blood vessel tension measurement, norepinephrine-induced tension in helical strips; format: cell-based; conditions: 40 mins incubation before second NE doses
Procedure: The method was essentially similar to the one described by Pang, et al. (1980). Sprague-Dawley rats of either sex were anesthetized with pentobarbital (50 mg/kg) and the tail artery or aorta were isolated and removed and then placed in KHS buffer (115 mM NaCl, 5 mM KCl, 2.1 mM CaCl2, 1.2 mM MgSO4, 1.2 mM NaH2 PO4, 25 mM NaHCO3, and 11 mM glucose) oxygenated with 95% O2, 5% CO2. The vessels were cut helically and strips of approximately 1.5 cm were secured in a Sawyer-Bartlestone chamber containing KHS. The force development of the helical strips was measured with a Grass FT 0.03 force displacement transducer and recorded on a Grass Model 79D polygraph. Isolated tail artery helical strips were equilibrated for 1 hour prior to addition of any vasoconstricting agents. The strips were preloaded with a resting tension of 0.7 g and incubated at 37° C. (Pang et al., 1985). In all cases, the responsiveness of strips was first tested by adding 60 mM KCl and only responsive tissue was used in experiments. There were two series of experiments.
Two consecutive dose responses to NE in tension development with 1 hour interval were compared. The tissue was washed out after adding first accumulated doses of NE and incubated in normal KHS buffer for 20 mins. The control solvent or testing substances (PHF or LP compounds) were then applied and incubated for another 40 mins. […]

SD rats = assay: Blood pressure bioassay, bolus injection into anesthetized normotensive SD rats; format: in vivo; conditions: normotensive rat, as in Example 1
Procedure: SD rats were anesthetized using Na pentobarbital, (50 mg/kg, i.p.) and catheters were inserted in the jugular vein for injection of plasma and drugs and in the carotid artery for measurement of b.p.
The chloroform methanol extract of SHR plasma was redissolved in saline and administered by bolus injection.

[1] = tested on: CaM (calmodulin)-Dependent PDE; assay: Activation of CaM-dependent PDE (cGMP-PDE activity); format: biochemical
Procedure: The measurement of cGMP-PDE activity is based on the conversion of [^3 H]cGMP into [^3 H]GMP and its subsequent hydrolysis by snake venom into [^3 H]Guanosine (Wallace, et al., 1983; Wells, et al., 1975). The testing substance was added to a mixture containing 60 mM TES, 3 mM MgCl2, 0.8 mg/ml BSA, 25 μM EGTA, 50 uM CaCl2, 1 mM DTT, 0.5 μM cGMP and [^3 H]-cGMP (10-15×10^3 cpm) at a final pH of 7.5 for a total volume of 200 μl. The reaction was started by the addition of a fixed quantity of CaM-deficient PDE (Sigma Chemical Co., St. Louis, Mo.). Incubation carried out for 15 mins at 30° C., was terminated by boiling for 5 mins. The second reaction was initiated by the addition of 20 μl (10 mg/ml) of snake venom (Crotalus atrox). After 10 mins., the incubation was stopped with 700 μl of a second termination medium containing 0.1 mM guanosine. The total incubation mixture was then applied onto a column of QAE-Sephadex A-25 (formate form) to separate labeled nucleotides from the labeled nucleosides formed. The resin was eluted with 4 ml of 20 mM ammonium formate (pH 6.5), and the radioactivity of the eluate containing [^3 H]guanosine was determined in a liquid scintillation counter. A standard curve of PDE stimulation by CaM was obtained by the addition of different concentrations of purified bovine heart CaM (Sigma) (0.1-200 ng/tube). […]

[2] = tested on: vascular smooth muscle cells isolated from rat tail artery; assay: Intracellular calcium determination (fura-2); format: cell-based; conditions: 45 mins incubation before KCl; 30 mM KCl for pure PHF, 15 mM KCl for FMOC-PHF
Procedure: All studies were performed in vascular smooth muscle cells isolated from Sprague Dawley (SD) rat tail artery as described in Wang, et al. (Wang, et al. 1989) with modification. Male SD rats (100-200 g body weight) were anaesthetized with sodium pentobarbital (65 mg/kg body weight intraperitoneally) and the tail artery dissected out and immersed in cold Ca and Mg free Hanks' balanced salt solution (HBSS, Gibco). The blood was washed off from the artery and the connective tissue was then removed. Using a dissecting microscope inside a laminar flow hood, the artery was cut into pieces of about 1.5 cm and placed in 4° C. Ca free HBSS for 30 minutes. […]
Primary cultured vascular smooth muscle cells were incubated for 45 minutes in DMEM containing 5 μM fura-2 acetoxymethyl ester (Molecular Probes, INC.) at room temperature. […] After about 5 min, the coverslip with attached cells was placed in a Sykes-Moore chamber of 1-ml volume on the stage of an inverted microscope, and fluorescence measurements were made with a Fluoroplex III sepctrofluorometer (Tracor Northern). […] R is the ratio of fluorescence in the sample excited at […] which represents intracellular free calcium concentration. […]
The monolayer cells in 1 mM Ca^2+ 5K buffer were challenged by testing substances and the change of R was recorded for a certain period of time. […]

effect on calcium channel current increased by FMOC-PHF (L-type Ca2+ channel): reversal
Compound: CC(C)Cn1c(=O)n(C)c(=O)c2[nH]cnc21 [IBMX]

increase in 86Rb uptake (Na+ K+ ATPase; 600 micromolar, p<0.05): 31%
Compound: Lysophosphatidyl inositol
effect on norepinephrine induced tension development (rat tail artery): potentiations of norepinephrine induced tension
hypertensive response (blood pressure in normotensive rats) (SD rats): delayed, sustained increase in blood pressure

increase in 86Rb uptake (Na+ K+ ATPase; 30 micromolar, p<0.01): 46%
effect on phosphodiesterase (PDE) activity [1]: stimulated PDE activity
Compound: Lysophosphatidyl serine
hypertensive response (blood pressure in normotensive rats) (SD rats): delayed sustained increase in blood pressure

Compound: lysophosphatidyl choline [LPC]
effect on intracellular calcium ([Ca2+]i increment induced by KCl) [2]: significantly augments the increase in intracellular calcium induced by KCl
